Source: patent publication US20240085425A1, “BIOMARKER AND APPLICATION THEREOF” (ADLAI NORTYE BIOPHARMA CO., LTD., priority 2022, published 2024)

Experiments:
Format in all cases: cell-based
[1] = tested on: non-phosphorylated β-catenin; experiment: Western blot of non-phosphorylated β-catenin content in DU4475 cells; conditions: overnight, read-out: Non-phosphorylated β-catenin content inhibition IC50
Source text: (§1) The Wnt signaling pathway is a key pathway for abnormal tumor growth. In colon cancer, liver cancer, pancreatic cancer and other cancers, a large number of patients have abnormal activation of the Wnt signaling pathway. The Wnt signaling pathway depends on the fine balance of β-catenin protein level. When Wnt signaling is not activated, β-catenin is phosphorylated by CK1 and APC/Axin/GSK-3β complexes, and the β-catenin protein is kept at a low level through ubiquitin-dependent proteasome degradation. When the Wnt signaling pathway is activated, β-catenin maintains a stable state of non-phosphorylation, and non-phosphorylated β-catenin can be transported into the nucleus through Rac1 and other factors, and plays a transcriptional regulatory role by binding to LEF/TCF transcription factors in the nucleus, activates downstream target genes such as C-myc and Cyclin D1, and promotes cell proliferation. Therefore, abnormal activation of the Wnt signaling pathway in tumor cells will lead to abnormal proliferation of tumors. […]
(§2) Add 500 μL of the compound with the highest concentration shown in FIG. 1 to each well of the 6-well cell culture plate, and make a 10-fold gradient dilution of the compound concentration. […] Load the protein sample directly to the SDS-PAGE gel for electrophoresis separation, transfer the protein on the SDS-PAGE gel to the PVDF membrane; after the transfer was completed, the protein was blocked by Western blocking solution, then Rabbit anti-β-catenin non-phospho S37/After T41 (ab278503) was added and the protein was incubated at room temperature for one hour and washed, the content of non-phosphorylated β-catenin was detected by incubation with Goat Anti-Rabbit IgG H&L (HRP) (ab6721). […]

[2] = tested on: non-phosphorylated β-catenin; experiment: Western blot of non-phosphorylated β-catenin content in Colo205 cells; conditions: for Effect on content of non-phosphorylated β-catenin (active β-catenin), in words: FIG. 1; for IC50: overnight, Western blot, read-out: Non-phosphorylated β-catenin content inhibition IC50
Source text: The Wnt signaling pathway is a key pathway for abnormal tumor growth. In colon cancer, liver cancer, pancreatic cancer and other cancers, a large number of patients have abnormal activation of the Wnt signaling pathway. The Wnt signaling pathway depends on the fine balance of β-catenin protein level. When Wnt signaling is not activated, β-catenin is phosphorylated by CK1 and APC/Axin/GSK-3β complexes, and the β-catenin protein is kept at a low level through ubiquitin-dependent proteasome degradation. When the Wnt signaling pathway is activated, β-catenin maintains a stable state of non-phosphorylation, and non-phosphorylated β-catenin can be transported into the nucleus through Rac1 and other factors, and plays a transcriptional regulatory role by binding to LEF/TCF transcription factors in the nucleus, activates downstream target genes such as C-myc and Cyclin D1, and promotes cell proliferation. Therefore, abnormal activation of the Wnt signaling pathway in tumor cells will lead to abnormal proliferation of tumors. In order to explore the inhibitory mechanism of the compound on the proliferation of tumor cell lines, the compound AN10250399, AN10250421 or AN10250484 was used to treat sensitive cells Colo205, DU4475 and HepG2, and Western blot was used to detect the content of non-phosphorylated β-catenin in the Wnt pathway to clarify the effect of the compound on content of the non-phosphorylated β-catenin.
Add 500 μL of the compound with the highest concentration shown in FIG. 1 to each well of the 6-well cell culture plate, and make a 10-fold gradient dilution of the compound concentration. Then 500 μL of 10^6 Colo205, DU4475 and HepG2 or 500 μL of medium were inoculated into each well, and corresponding solvent treatment was performed simultaneously as negative control wells. The cells were placed in a 5% CO2 cell incubator, cultured overnight at 37° C. The culture medium was removed, washed once with PBS, 200 μL of RIPA buffer containing protease inhibitors was added to each well, and the protein lysate was collected after lysing on ice for 20 min. Add an appropriate amount of concentrated SDS-PAGE protein loading buffer to the collected protein lysate samples, and heat at 100° C. or in a boiling water bath for 3-5 minutes to fully denature the protein. Load the protein sample directly to the SDS-PAGE gel for electrophoresis separation, transfer the protein on the SDS-PAGE gel to the PVDF membrane; after the transfer was completed, the protein was blocked by Western blocking solution, then Rabbit anti-β-catenin non-phospho S37/After T41 (ab278503) was added and the protein was incubated at room temperature for one hour and washed, the content of non-phosphorylated β-catenin was detected by incubation with Goat Anti-Rabbit IgG H&L (HRP) (ab6721). As a control, glyceraldehyde-3-phosphate dehydrogenase (GAPDH) was used as an internal standard protein

[3] = tested on: 22Rv1; experiment: Tumor cell proliferation inhibition (Promega cell viability, 72 h); conditions: Homo sapiens, 22Rv1 cells, read-out: Anti-proliferation IC50
Description: (§3) The cell lines used in the experiment are various tumor cells, including DU4475, Colo205, HepG2, PLC/PRF/5, BT-20, LS174T, NCI-H929, HCT116, SW620, SK-CO-1, SW480, DLD1, HT-29, SW900, SW1417, HuH7, H2009, PANC-1, SW48, Duadi, H358, HCT15, 22Rv1, Hela, RKO, Raji, Jurkat, NCI-H716, MDA-MB-231, NCI-H157 and THP1, and the inhibitory effect of the compound of the present disclosure on the proliferation of these tumor cells is determined, in order to screen out sensitive cell types of the compound of the present disclosure.
(§4) DU4475, Colo205, HepG2, PLC/PRF/5, BT-20, LS174T, NCI-H929, HCT116, SW620, SK-CO-1, SW480, DLD1, HT-29, SW900, SW1417, HuH7, H2009, PANC-1, SW48, Duadi, H358, HCT15, 22Rv1, Hela, RKO, Raji, Jurkat, NCI-H716, MDA-MB-231, NCI-H157 and THP1 cell lines cultured in each medium were treated during the logarithmic growth phase, and the cells were collected and prepared into a uniform cell suspension of known concentration, and then added to the 96-well cell culture plate to make each well contain 1000 cells. Put it into a 5% CO2 incubator and incubate at 37° C. for 20-24 h. The next day, the fully dissolved 3-fold gradient diluted compound was added to each cell culture well, so that the final maximum concentration in the cell culture well was 20 μM, and the culture was continued for 72 hours. In this test, Promega's cell viability detection test is used for detection. The more the cells proliferate, the stronger the final signal intensity will be. The detection instrument is SpectraMax, full wavelength mode. The wells with only DMSO added were used as positive control wells, and the wells without cells inoculated were used as negative control wells. The IC50 value of each compound for different cell proliferation inhibition was calculated to evaluate the inhibitory effect of the compound on different tumor cells.

[4] = tested on: LS174T; experiment: as above; conditions: Homo sapiens, LS174T cells, read-out: Anti-proliferation IC50
Description: as §3, §4

[5] = tested on: H358; experiment: as above; conditions: Homo sapiens, NCI-H358, H358 cells, read-out: Anti-proliferation IC50
Description: as §3, §4

[6] = tested on: SK-CO-1; experiment: as above; conditions: Homo sapiens, SK-CO-1 cells, read-out: Anti-proliferation IC50
Description: as §3, §4

[7] = tested on: Duadi; experiment: as above; conditions: Duadi cells, read-out: Anti-proliferation IC50
Description: as §3, §4

[8] = tested on: non-phosphorylated β-catenin; experiment: Western blot of non-phosphorylated β-catenin content in HepG2 cells; conditions: overnight, read-out: Non-phosphorylated β-catenin content inhibition IC50
Source text: as §1, §2

Cc1nc(C(F)(F)F)ncc1Oc1ccc(CNc2nc(C)c3c(n2)N(C)[C@@H](C)C(=O)N3)cn1 [AN10250484]
IC50 [1]: 29 nM
Effect on content of non-phosphorylated β-catenin (active β-catenin), in words [2]: decrease the content of non-phosphorylated β-catenin
IC50 [2]: 10 nM
IC50 [3]: > 10000 nM
IC50 [4]: 26.3 nM
IC50 [5]: > 10000 nM
IC50 [6]: 285 nM
IC50 [7]: > 10000 nM
IC50 [8]: 5.9 nM

[2H]C([2H])([2H])N1c2nc(NCc3ccc(Oc4cnc(C(F)(F)F)nc4)nc3)nc3c2N(CCC3)C(=O)[C@]1(C)CO [AN10250399]
IC50 [1]: 157 nM
Effect on content of non-phosphorylated β-catenin (active β-catenin), in words [2]: decrease the content of non-phosphorylated β-catenin
IC50 [2]: 22 nM
IC50 [3]: > 10000 nM
IC50 [4]: 102 nM
IC50 [5]: > 10000 nM
IC50 [6]: 341 nM
IC50 [7]: > 10000 nM
IC50 [8]: 4 nM
